Results published in patent US9340590B2 (priority 2011, dated 2016).
Where two headings read alike, the source gives them in different places. Positions of bridges follow the written chain, without caps; N, C: chain ends. Non-standard residues stand in square brackets, D forms with d. Residues, ends and D or L forms follow the SMILES beside them. Bip = N[C@@H](Cc1ccc(-c2ccccc2)cc1)C(=O)O

Legend:
Test in all cases: cell-based
[1] = target: hNav1.7 (Homo sapiens, UniProt Q15858); type: cell-based
[2] = target: hNav1.5 (Homo sapiens, UniProt Q14524)
[3] = target: hNav1.3 (Homo sapiens, UniProt Q9NY46); conditions: IonWorks Quattro, read-out: IWQ Use Nav1.3
[4] = IonWorks Quattro, use-dependent block, hNav1.7, read-out: IWQ Use Nav1.7
[5] = IonWorks Quattro, use-dependent block, hNav1.5, read-out: IWQ Use Nav1.5
[6] = clamped to −110 mV, depolarized to −10 mV, 5 min after compound, n=2

Sequence of hNav1.5 (Q14524 whole entry, looked up): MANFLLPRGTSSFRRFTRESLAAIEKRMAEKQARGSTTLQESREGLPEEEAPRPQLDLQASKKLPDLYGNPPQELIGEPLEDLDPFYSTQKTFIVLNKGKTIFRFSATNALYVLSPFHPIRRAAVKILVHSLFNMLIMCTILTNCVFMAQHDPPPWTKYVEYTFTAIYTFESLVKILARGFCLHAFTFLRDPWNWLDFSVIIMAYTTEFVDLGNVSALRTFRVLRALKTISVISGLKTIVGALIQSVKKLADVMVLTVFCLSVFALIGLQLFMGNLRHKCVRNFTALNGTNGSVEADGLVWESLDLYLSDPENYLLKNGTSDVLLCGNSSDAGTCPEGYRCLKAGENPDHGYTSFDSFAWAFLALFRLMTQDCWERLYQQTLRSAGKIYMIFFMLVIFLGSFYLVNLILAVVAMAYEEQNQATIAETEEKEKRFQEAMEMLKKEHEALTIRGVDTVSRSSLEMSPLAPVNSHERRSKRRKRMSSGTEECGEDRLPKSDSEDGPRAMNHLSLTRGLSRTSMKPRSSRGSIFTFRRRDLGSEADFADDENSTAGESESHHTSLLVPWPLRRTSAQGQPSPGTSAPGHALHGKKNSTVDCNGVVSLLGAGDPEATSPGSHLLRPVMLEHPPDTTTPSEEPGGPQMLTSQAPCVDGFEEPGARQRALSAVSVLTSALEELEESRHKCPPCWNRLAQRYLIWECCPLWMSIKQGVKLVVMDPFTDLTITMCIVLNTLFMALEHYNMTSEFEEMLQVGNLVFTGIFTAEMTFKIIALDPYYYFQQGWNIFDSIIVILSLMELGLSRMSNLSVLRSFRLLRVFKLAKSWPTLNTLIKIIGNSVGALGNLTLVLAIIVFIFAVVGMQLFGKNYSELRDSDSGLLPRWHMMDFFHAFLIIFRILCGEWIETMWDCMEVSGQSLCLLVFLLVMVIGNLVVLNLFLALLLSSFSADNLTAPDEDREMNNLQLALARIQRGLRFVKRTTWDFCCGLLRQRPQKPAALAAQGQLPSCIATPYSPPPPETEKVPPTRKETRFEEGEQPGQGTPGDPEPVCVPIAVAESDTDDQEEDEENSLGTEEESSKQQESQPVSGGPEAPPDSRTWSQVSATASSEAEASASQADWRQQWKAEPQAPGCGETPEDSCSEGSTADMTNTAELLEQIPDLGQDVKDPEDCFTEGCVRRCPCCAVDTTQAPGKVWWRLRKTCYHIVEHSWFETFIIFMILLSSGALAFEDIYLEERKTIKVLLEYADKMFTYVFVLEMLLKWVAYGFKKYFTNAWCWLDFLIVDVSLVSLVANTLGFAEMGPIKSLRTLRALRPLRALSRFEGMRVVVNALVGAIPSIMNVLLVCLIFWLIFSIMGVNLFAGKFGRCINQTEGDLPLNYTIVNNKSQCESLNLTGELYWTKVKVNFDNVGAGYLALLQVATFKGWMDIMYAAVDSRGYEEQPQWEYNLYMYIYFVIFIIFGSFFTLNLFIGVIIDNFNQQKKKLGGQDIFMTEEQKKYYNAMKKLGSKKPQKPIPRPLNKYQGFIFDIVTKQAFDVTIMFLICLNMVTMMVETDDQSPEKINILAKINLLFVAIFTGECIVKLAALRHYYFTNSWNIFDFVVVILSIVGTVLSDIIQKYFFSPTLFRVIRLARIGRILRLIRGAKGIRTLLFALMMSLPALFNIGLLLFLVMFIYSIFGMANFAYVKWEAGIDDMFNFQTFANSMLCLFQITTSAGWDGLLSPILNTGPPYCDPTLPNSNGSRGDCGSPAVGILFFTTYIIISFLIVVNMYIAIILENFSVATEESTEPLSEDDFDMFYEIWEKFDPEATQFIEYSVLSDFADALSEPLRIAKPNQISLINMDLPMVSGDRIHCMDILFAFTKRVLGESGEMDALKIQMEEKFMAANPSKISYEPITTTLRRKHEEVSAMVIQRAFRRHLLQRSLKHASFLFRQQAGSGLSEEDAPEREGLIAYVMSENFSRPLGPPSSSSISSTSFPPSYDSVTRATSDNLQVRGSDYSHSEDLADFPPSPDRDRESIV
Sequence of hNav1.7 (Q15858 whole entry, looked up): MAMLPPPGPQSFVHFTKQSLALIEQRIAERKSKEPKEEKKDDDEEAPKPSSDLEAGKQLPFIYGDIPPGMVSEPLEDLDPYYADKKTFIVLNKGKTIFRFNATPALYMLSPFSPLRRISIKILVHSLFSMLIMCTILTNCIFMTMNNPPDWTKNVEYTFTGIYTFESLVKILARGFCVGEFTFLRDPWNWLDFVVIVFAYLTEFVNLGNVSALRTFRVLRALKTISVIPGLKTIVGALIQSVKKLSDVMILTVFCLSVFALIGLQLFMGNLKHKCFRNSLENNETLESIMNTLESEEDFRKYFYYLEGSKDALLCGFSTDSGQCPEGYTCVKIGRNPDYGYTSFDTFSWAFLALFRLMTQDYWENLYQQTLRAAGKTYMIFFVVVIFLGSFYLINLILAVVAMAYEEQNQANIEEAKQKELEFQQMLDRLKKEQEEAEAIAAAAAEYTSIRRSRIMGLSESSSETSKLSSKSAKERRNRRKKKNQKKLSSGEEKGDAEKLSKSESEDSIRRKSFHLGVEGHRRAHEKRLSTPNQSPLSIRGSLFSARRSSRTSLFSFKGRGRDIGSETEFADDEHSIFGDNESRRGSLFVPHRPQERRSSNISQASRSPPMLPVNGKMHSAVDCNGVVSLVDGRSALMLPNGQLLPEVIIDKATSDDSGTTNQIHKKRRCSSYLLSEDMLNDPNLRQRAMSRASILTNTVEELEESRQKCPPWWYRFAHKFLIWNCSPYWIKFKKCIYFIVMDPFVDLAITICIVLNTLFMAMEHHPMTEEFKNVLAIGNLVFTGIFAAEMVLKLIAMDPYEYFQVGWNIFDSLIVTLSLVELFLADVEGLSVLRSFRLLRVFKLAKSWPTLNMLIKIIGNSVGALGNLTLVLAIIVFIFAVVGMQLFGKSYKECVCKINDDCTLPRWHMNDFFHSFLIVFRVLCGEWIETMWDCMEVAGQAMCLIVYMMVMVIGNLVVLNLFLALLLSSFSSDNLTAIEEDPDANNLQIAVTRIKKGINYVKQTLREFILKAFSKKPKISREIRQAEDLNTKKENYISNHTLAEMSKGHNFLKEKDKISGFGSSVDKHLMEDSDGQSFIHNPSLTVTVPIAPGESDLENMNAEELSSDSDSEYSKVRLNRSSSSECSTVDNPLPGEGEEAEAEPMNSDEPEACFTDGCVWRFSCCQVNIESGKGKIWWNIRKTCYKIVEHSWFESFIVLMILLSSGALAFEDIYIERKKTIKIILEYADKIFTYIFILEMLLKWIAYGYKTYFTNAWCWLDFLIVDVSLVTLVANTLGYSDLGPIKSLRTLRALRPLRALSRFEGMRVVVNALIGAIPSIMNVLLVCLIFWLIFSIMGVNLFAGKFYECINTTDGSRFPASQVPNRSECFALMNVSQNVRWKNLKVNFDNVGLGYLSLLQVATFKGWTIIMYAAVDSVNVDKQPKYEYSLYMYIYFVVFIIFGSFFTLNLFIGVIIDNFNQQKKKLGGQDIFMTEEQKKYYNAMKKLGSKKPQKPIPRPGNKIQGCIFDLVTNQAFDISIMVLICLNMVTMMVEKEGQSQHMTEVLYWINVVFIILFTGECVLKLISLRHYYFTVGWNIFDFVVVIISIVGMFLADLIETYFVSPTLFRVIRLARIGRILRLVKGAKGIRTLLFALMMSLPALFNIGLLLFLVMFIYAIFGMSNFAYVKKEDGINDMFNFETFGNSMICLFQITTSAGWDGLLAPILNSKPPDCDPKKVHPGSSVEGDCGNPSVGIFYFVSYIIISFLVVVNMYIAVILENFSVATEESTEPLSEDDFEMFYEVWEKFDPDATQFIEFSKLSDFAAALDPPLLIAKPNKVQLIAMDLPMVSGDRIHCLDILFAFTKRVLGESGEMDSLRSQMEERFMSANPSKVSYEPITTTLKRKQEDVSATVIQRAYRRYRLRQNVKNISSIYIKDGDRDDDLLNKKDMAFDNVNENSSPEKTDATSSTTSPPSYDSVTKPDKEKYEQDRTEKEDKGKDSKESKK

Compound | IC50 [1, 4] [µM] | IC50 [2, 5] [µM] | IC50 ([3]; use-dependent block, hNav1.3) [µM] | IC50 [3, 6] [µM] | other results
CC[C@H](C)[C@@H]1NC(=O)[C@@H]2CSSC[C@@H]3NC(=O)[C@H](C(C)C)NC(=O)[C@H](CC(C)C)NC(=O)[C@H](CC(N)=O)NC(=O)[C@@H]4CCCN4C(=O)[C@H](CCCNC(=N)N)NC(=O)[C@H](CSSC[C@H](NC(=O)[C@@H](N)CC(=O)O)C(=O)N[C@@H](CC(C)C)C(=O)NCC(=O)N[C@@H](C)C(=O)N[C@@H](CC[S+](C)[O-])C(=O)N[C@@H](CCCNC(=N)N)C(=O)N[C@@H](CCCCN)C(=O)N2)NC(=O)[C@H](CSSC[C@@H](C(=O)N[C@@H](CCCCN)C(=O)N[C@@H](Cc2ccc(O)cc2)C(=O)N[C@H](C(=O)N[C@@H](Cc2ccccc2)C(N)=O)C(C)C)NC(=O)[C@H](Cc2c[nH]c4ccccc24)NC(=O)[C@H](CCCCN)NC(=O)[C@H](Cc2c[nH]cn2)NC(=O)[C@H]([C@@H](C)O)NC(=O)[C@H](CCCNC(=N)N)NC(=O)[C@H](CO)NC3=O)NC(=O)[C@H](CCCCN)NC(=O)[C@H](CC(=O)O)NC(=O)[C@H](CC(N)=O)NC(=O)[C@H](CC(=O)O)NC(=O)[C@@H]2CCCN2C1=O (single isomer, unassigned) [compound 791] | > 5 | 39.5 | > 5 |  | 
CC[C@H](C)[C@@H]1NC(=O)[C@@H]2CSSC[C@@H]3NC(=O)[C@H](C(C)C)NC(=O)[C@H](CC(C)C)NC(=O)[C@H](CC(N)=O)NC(=O)[C@@H]4CCCN4C(=O)[C@H](CCCNC(=N)N)NC(=O)[C@H](CSSC[C@H](NC(=O)[C@@H](N)CC(=O)O)C(=O)N[C@@H](CC(C)C)C(=O)NCC(=O)N[C@@H](C)C(=O)N[C@@H](CC[S+](C)[O-])C(=O)N[C@@H](CCCNC(=N)N)C(=O)N[C@@H](CCCCN)C(=O)N2)NC(=O)[C@H](CSSC[C@@H](C(=O)N[C@@H](CCCCN)C(=O)N[C@@H](Cc2ccc(O)cc2)C(=O)N[C@H](C(=O)N[C@@H](Cc2ccccc2)C(N)=O)C(C)C)NC(=O)[C@H](Cc2c[nH]c4ccccc24)NC(=O)[C@H](CCCCN)NC(=O)[C@H](Cc2c[nH]cn2)NC(=O)[C@H]([C@@H](C)O)NC(=O)[C@H](CCCNC(=N)N)NC(=O)[C@H](CO)NC3=O)NC(=O)[C@H](CCCCN)NC(=O)[C@H](CC(=O)O)NC(=O)[C@H](CC(N)=O)NC(=O)[C@H](CC(=O)O)NC(=O)[C@@H]2CCCN2C1=O (single isomer, unassigned) [compound 792] | > 5 | 49.8 | > 5 |  | 
CC[C@H](C)[C@@H]1NC(=O)[C@@H]2CSSC[C@@H]3NC(=O)[C@H](C(C)C)NC(=O)[C@H](CC(C)C)NC(=O)[C@H](CC(N)=O)NC(=O)[C@@H]4CCCN4C(=O)[C@H](CCCNC(=N)N)NC(=O)[C@H](CSSC[C@H](NC(=O)[C@@H](N)CC(=O)O)C(=O)N[C@@H](CC(C)C)C(=O)NCC(=O)N[C@@H](Cc4ccccc4)C(=O)N[C@@H](CC[Se]C)C(=O)N[C@@H](CCCNC(=N)N)C(=O)N[C@@H](CCCCN)C(=O)N2)NC(=O)[C@H](CSSC[C@@H](C(=O)N[C@@H](CCCCN)C(=O)N[C@@H](Cc2ccc(O)cc2)C(=O)N[C@H](C(=O)N[C@@H](Cc2ccccc2)C(N)=O)C(C)C)NC(=O)[C@H](Cc2c[nH]c4ccccc24)NC(=O)[C@H](CCCCN)NC(=O)[C@H](Cc2c[nH]cn2)NC(=O)[C@H]([C@@H](C)O)NC(=O)[C@H](CCCNC(=N)N)NC(=O)[C@H](CO)NC3=O)NC(=O)[C@H](CCCCN)NC(=O)[C@H](CC(=O)O)NC(=O)[C@H](CC(N)=O)NC(=O)[C@H](CC(=O)O)NC(=O)[C@@H]2CCCN2C1=O [SEQ ID NO: 3] |  |  |  | 0.1 | IC50 ([1]; IonWorks Quattro, clamped to −110 mV, depolarized to −10 mV, 5 min after compound, n=2, read-out: IWQ Use Nav1.7): 0.1 µM; IC50 ([2]; IonWorks Quattro, clamped to −110 mV, depolarized to −10 mV, 5 min after compound, n=2, read-out: IWQ Use Nav1.5): 13.9 µM
CC[C@H](C)[C@@H]1NC(=O)[C@@H]2CSSC[C@@H]3NC(=O)[C@H](C(C)C)NC(=O)[C@H](CC(C)C)NC(=O)[C@H](CC(N)=O)NC(=O)[C@@H]4CCCN4C(=O)[C@H](CCCNC(=N)N)NC(=O)[C@H](CSSC[C@H](NC(=O)[C@H](CC(=O)O)NC(=O)[C@@H](N)CCC(=O)O)C(=O)N[C@@H](CC(C)C)C(=O)NCC(=O)N[C@@H](Cc4ccccc4)C(=O)N[C@@H](CCSC)C(=O)N[C@@H](CCCNC(=N)N)C(=O)N[C@@H](CCCCN)C(=O)N2)NC(=O)[C@H](CSSC[C@@H](C(=O)N[C@@H](CCCCN)C(=O)N[C@@H](Cc2ccc(O)cc2)C(=O)N[C@H](C(=O)N[C@@H](Cc2ccccc2)C(N)=O)C(C)C)NC(=O)[C@H](Cc2c[nH]c4ccccc24)NC(=O)[C@H](CCCCN)NC(=O)[C@H](Cc2cnc[nH]2)NC(=O)[C@H]([C@@H](C)O)NC(=O)[C@H](CCCNC(=N)N)NC(=O)[C@H](CO)NC3=O)NC(=O)[C@H](CCCCN)NC(=O)[C@H](CC(=O)O)NC(=O)[C@H](CC(N)=O)NC(=O)[C@H](CC(=O)O)NC(=O)[C@@H]2CCCN2C1=O [SEQ ID NO: 17] |  |  |  | 0.19 | IC50 [1]: 0.26 µM; IC50 ([2]; IWQ Use Nav1.5): 12.8 µM
CSCC[C@@H]1NC(=O)[C@H](Cc2ccccc2)NC(=O)CNC(=O)[C@H](CC(C)C)NC(=O)[C@@H](NC(=O)[C@@H](N)CC(=O)O)CSSC[C@@H]2NC(=O)[C@@H]3CSSC[C@@H](C(=O)N[C@@H](CCCCN)C(=O)N[C@@H](Cc4ccc(O)cc4)C(=O)N[C@H](C(=O)N[C@@H](Cc4ccccc4)C(N)=O)C(C)C)NC(=O)[C@H](Cc4c[nH]c5ccccc45)NC(=O)[C@H](CCCCN)NC(=O)[C@H](Cc4c[nH]cn4)NC(=O)[C@H]([C@@H](C)O)NC(=O)[C@H](CCCNC(=N)N)NC(=O)[C@H](CO)NC(=O)[C@H](CSSC[C@H](NC(=O)[C@H](CCCCN)NC(=O)[C@H](CCCNC(=N)N)NC1=O)C(=O)N[C@@H](CCSC)C(=O)N1CCC[C@H]1C(=O)N[C@@H](CC(=O)O)C(=O)N[C@@H](CC(N)=O)C(=O)N[C@@H](CC(=O)O)C(=O)N[C@@H](CCCCN)C(=O)N3)NC(=O)[C@H](C(C)C)NC(=O)[C@H](CC(C)C)NC(=O)[C@H](CC(N)=O)NC(=O)[C@@H]1CCCN1C(=O)[C@H](CCCNC(=N)N)NC2=O [compound 307] (H-DCLGFMRKCMPDNDKCCRPNLVCSRTHKWCKYVF-NH2; disulfide 2-17, 9-23, 16-30) |  |  |  |  | IC50 ([1]; read-out: IWQ Use Nav1.7): 0.09 µM; IC50 ([2]; IonWorks Quattro, Use, read-out: IWQ Use Nav1.5): 3.38 µM
CC[C@H](C)[C@@H]1NC(=O)[C@@H]2CSSC[C@@H]3NC(=O)[C@H](C(C)C)NC(=O)[C@H](CC(C)C)NC(=O)[C@H](CC(N)=O)NC(=O)[C@@H]4CCCN4C(=O)[C@H](CCCNC(=N)N)NC(=O)[C@H](CSSC[C@H](NC(=O)[C@@H](N)CC(=O)O)C(=O)N[C@@H](CC(C)C)C(=O)NCC(=O)N[C@@H](Cc4ccccc4)C(=O)N[C@@H](CCSC)C(=O)N[C@@H](CCCNC(=N)N)C(=O)N[C@@H](CCCCN)C(=O)N2)NC(=O)[C@H](CSSC[C@@H](C(=O)N[C@@H](CCCCN)C(=O)N[C@@H](Cc2ccc(-c4ccccc4)cc2)C(=O)N[C@H](C(=O)N[C@@H](Cc2ccccc2)C(N)=O)C(C)C)NC(=O)[C@H](Cc2c[nH]c4ccccc24)NC(=O)[C@H](CCCCN)NC(=O)[C@H](Cc2c[nH]cn2)NC(=O)[C@H]([C@@H](C)O)NC(=O)[C@H](CCCNC(=N)N)NC(=O)[C@H](CO)NC3=O)NC(=O)[C@H](CCCCN)NC(=O)[C@H](CC(=O)O)NC(=O)[C@H](CC(N)=O)NC(=O)[C@H](CC(=O)O)NC(=O)[C@@H]2CCCN2C1=O [compound 376] (H-DCLGFMRKCIPDNDKCCRPNLVCSRTHKWCK[Bip]VF-NH2; disulfide 2-17, 9-23, 16-30) |  |  |  |  | IC50 ([1]; Table 25, IonWorks Quattro, use, […], read-out: IWQ Use Nav1.7): 0.03 µM; IC50 ([2]; Table 25, IonWorks Quattro, use, […], read-out: IWQ Use Nav1.5): 2.9 µM
